For 1 molecule, LD50 results are on record in patent publication EP0476944B1, “Aromatase inhibiting 4(5)-imidazoles” (ORION-YHTYMÄ OY, priority 1990, dated 1992).

A short description of this series: Acute toxicity, oral, in mice. The conditions noted are these: mouse, in vivo; oral administration; young adult female mice of NMRI-strain; read-out: Acute toxicity, LD₅₀. On the procedure: Acute toxicity, LD₅₀, was determined by using young adult female mice of NMRI-strain. The administration was oral. The LD₅₀-value for 4-[2,4-bis(4-fluorophenyl)butyl]-1H-imidazole was 400 mg/kg.

As to `Fc1ccc(CCC(Cc2c[nH]cn2)c2ccc(F)cc2)cc1` (stereo not shown) [Compound 3, 4-[2,4-bis(4-fluorophenyl)butyl]-1H-imidazole], the LD50 worked out at 400 mg/kg.
